Article PMC8705394, “Acquired Drug Resistance Enhances Imidazoquinoline Efflux by P-Glycoprotein” (Pharmaceuticals, 2021)

Columns and labels:
[1] = target: T1, P-glycoprotein 1 (P-gp, hMDR1) (Homo sapiens, UniProt P08183); experiment: biochemical
T1 construct: gene ABCB1

[2] = target: T1, P-glycoprotein 1 (P-gp, hMDR1); experiment: vanadate-sensitive ATPase activation in P-gp membrane vesicles (PREDEASY kit); supported by Rh123 competition in MDR cells

T1 sequence (P08183 whole entry): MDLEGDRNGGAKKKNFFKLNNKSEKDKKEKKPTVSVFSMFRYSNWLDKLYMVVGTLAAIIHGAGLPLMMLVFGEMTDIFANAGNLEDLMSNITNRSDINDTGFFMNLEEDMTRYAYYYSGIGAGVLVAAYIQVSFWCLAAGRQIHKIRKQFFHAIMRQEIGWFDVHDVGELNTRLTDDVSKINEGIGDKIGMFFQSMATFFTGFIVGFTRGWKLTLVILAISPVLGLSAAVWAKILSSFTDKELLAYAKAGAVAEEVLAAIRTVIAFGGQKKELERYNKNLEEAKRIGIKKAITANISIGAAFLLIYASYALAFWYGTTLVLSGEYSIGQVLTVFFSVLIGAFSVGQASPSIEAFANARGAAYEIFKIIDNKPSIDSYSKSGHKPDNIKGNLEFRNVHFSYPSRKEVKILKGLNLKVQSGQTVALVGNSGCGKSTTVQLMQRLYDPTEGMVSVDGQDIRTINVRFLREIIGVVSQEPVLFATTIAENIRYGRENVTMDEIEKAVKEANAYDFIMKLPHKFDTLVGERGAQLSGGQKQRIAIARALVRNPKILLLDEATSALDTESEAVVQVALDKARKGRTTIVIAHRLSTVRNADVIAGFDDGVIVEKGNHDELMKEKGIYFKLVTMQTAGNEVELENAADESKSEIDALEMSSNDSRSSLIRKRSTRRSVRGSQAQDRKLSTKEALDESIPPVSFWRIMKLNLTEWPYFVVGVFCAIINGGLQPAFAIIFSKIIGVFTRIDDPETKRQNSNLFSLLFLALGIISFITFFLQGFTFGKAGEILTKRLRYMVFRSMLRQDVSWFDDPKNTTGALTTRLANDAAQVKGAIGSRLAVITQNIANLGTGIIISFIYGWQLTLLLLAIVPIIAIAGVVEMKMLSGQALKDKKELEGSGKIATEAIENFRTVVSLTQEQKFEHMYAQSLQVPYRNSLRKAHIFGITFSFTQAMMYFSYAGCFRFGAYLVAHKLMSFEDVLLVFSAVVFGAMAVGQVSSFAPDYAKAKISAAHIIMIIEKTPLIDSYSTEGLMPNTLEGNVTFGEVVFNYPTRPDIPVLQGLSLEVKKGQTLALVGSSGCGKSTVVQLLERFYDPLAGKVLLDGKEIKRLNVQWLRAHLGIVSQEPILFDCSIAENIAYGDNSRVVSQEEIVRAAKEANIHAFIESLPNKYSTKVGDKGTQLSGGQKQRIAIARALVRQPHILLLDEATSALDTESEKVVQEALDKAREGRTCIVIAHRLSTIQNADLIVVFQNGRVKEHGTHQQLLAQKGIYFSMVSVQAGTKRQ

Kd [1] [µM]	Compound	Kd [2] [µM]
24.4	CCOCc1nc2c(N)nc3ccccc3c2n1CC(C)(C)O [RSQ, Resiquimod]	
	CC(C)Cn1cnc2c(N)nc3ccccc3c21 [IMQ, Imiquimod]	7.66
